{
  "source": "patent US20230333087A1",
  "about": "“METHODS FOR MONITORING PATIENT RESPONSE TO TREATMENT OF RETINAL OXIDATIVE DISEASES” (BioJiva LLC, priority 2022, published 2023)",
  "assay_type_in_all_cases": "in vivo, C57BL/6J mice",
  "key": {"[1]": {"system": "iron-induced retinal autofluorescence and degeneration", "assay": "Iron-induced retinal autofluorescence and degeneration, cSLO and OCT imaging 1 week after intravitreal iron", "procedure": "To evaluate the protective effect of 0.25% D-DHA diet, confocal scanning laser ophthalmoscopy (cSLO) and optical coherence tomography (OCT) were employed for in vivo imaging at 1 week after injections. For the cSLO imaging, both blue autofluorescence (BAF) and near-infra autofluorescence (IRAF) were performed.\nAdult male wild-type C57BL/6J mice (Stock No.000664, Jackson Labs, Bar Harbor, ME, USA) were housed in standard conditions under cyclic light (12 h:12 h light-dark cycle). Mice had ad libitum access to water and food. Beginning at 2 mo of age, mice were placed on the AIN93G diet described above, supplemented with 0.25% D-DHA or DHA (control diet) for 1 week, 2 weeks, 3 weeks, or 4 weeks prior to the intravitreal injection. Mice were given an intravitreal injection of 1 µl 0.5 mM ferric ammonium citrate diluted in 0.9% NaCl (saline) (MP Biomedicals LLC, Santa Ana, CA) or\n1 µl of saline as control. Intravitreal injections were performed as previously described ^54. Mice were continued on respective diet until their final evaluation. All housing and procedures were performed according to the NIH Guide for the Care and Use of Experimental Animals and approved by the University of Pennsylvania Animal Care and Use Committee.\nMice were given general anesthesia and placed on a platform. Pupils were dilated with 1% tropicamide saline solution (Akorn, Inc., Lake Forest, IL). Optical coherence tomography (OCT) imaging was performed for visualization of the retinal structure by using a Bioptigen\nEnvisu (R2200, Bioptigen Inc., Durham, NC, USA) coupled to a broadband LED light source (T870-HP, Superlum Diodes, Ltd, Ireland). Confocal scanning laser ophthalmoscopy (cSLO) (Spectralis HRA, Heidelberg Engineering, Franklin, MA, USA) was used for visualization of retinal AF using BluePeak™ or simply blue AF (488 nm excitation) and near-infrared AF (787 nm excitation) imaging modes."}, "retinal function": {"system": "retinal function", "assay": "Electroretinography", "procedure": "Electroretinography was conducted on mice fed with D-DHA or natural DHA for 4 weeks to evaluate retinal function. […] Thus, using this measure, incorporation of D-DHA had no impact on retinal function (FIG. 7A). […] Toluidine blue staining was performed on plastic sections to examine retinal histology.\nMice were dark adapted overnight and anesthetized with the same procedure. The electroretinograms were recorded with an Espion E3 system (Diagnosys LLC, Lowell, MA) with a ganzfeld Color Dome stimulator as previously described. All electroretinography were performed at the same time of day."}, "[2]": {"system": "neural retina mRNA levels", "assay": "Quantitative PCR of mRNA changes in the neural retina", "settings": "1 week after injection", "procedure": "Quantitative PCR was used to evaluate mRNA changes in the neural retinas of mice fed with D-DHA or DHA for 4 weeks. Cell-type specific, iron regulating, antioxidant, and inflammation related genes were evaluated at 1 week after iron or saline injections. The mRNA levels of the rod-specific gene rhodopsin (Rho), cone-specific gene cone opsin1 medium wave sensitive and short wave sensitive (Opn1mw and Opn1sw) were measured to assess the stress and differentiation of rod and cone photoreceptors. […] In contrast, there was no change in these mRNAs in the neural retinas of D-DHA/IVT iron mice relative to IVT saline controls (FIG. 9). The mRNA levels of transferrin receptor (Tfrc) which are inversely related to intracellular iron levels, can be used as an indicator of intracellular iron levels. […] These two groups had slightly different Tfrc levels, perhaps as a result of loss of some photoreceptors in the DHA/IVT iron group (FIG. 9). The mRNA levels of antioxidants solute carrier family 7 member 11 (SLC7A11), glutathione peroxidase 4 (GPX4), glutathione S-transferase isoform m1(GSTm1), glutathione synthesis (GSS), catalase (Cat), heme oxygenase 1 (Hmox1), and superoxide dismutase 1 (Sod1) were measured to investigate oxidative stress. […] The mRNA levels of IL1β, IL6 and cluster of differentiation 68 (Cd68) were detected to investigate the retinal inflammation. […] The mRNA levels of Glutathione-synthase (GSS) and IL6 were not increased by IVT iron in mice on either diet (FIG. 9).\nNeural retina tissues were isolated as previously described (e.g., M Hadziahmetovic et al. Age-dependent retinal iron accumulation and degeneration in hepcidin knockout mice. Investigative ophthalmology & visual science. Jan. 5, 2011;52(1):109-18).Gene expression changes in the neural retina and purified RPE cells were evaluated. Gapdh was used as an endogenous control. […]"}},
  "data": [
    {"smiles": "[2H]C([2H])(/C=C\\CC)/C=C\\C([2H])([2H])/C=C\\C([2H])([2H])/C=C\\C([2H])([2H])/C=C\\C([2H])([2H])/C=C\\CCC(=O)OCC", "note": "[D-DHA, 6,6,9,9,12,12,15,15,18,18-D10-(4Z,7Z,10Z,13Z,16Z, 19Z)-docosa 4,7,10,13,16, 19-hexaenoic acid ethyl ester]", "values": [
      {"measurement": "iron induced retinal AF (BAF and IRAF cSLO images)", "setting": "[1]; 0.25% D-DHA diet for 1, 2, 3 and 4 weeks before iron injection, 1 week after injection", "value": "dose-dependent reduction"},
      {"measurement": "protective effects (reduction of AF area)", "setting": "[1]; at >30% retinal D-DHA substitution levels", "value": "> 50", "unit": "%"},
      {"measurement": "retinal structure in OCT scans", "setting": "[1]; fed D-DHA for 4 weeks, 1 week after iron injection", "value": "complete protection"},
      {"measurement": "protection against iron-induced retinal damage", "setting": "[1]; fed D-DHA for 4 weeks, >50% substitution in neural retina", "value": "nearly complete protection"},
      {"measurement": "rod-b wave, rod-a wave and cone-b wave amplitudes", "setting": "retinal function; 4 weeks diet, mice not given IVT injections, compared to natural DHA", "value": "no significant difference"},
      {"measurement": "rod b-wave, rod a-wave and cone-b wave amplitudes", "setting": "retinal function; iron injected eyes, ≥50% retinal D-DHA, 1 week after injection, compared to DHA plus iron", "value": "marked protection"},
      {"measurement": "upregulation of antioxidants mRNA (Slc7a11, Gpx4, GSTm1, Cat, Hmox1, Sod1)", "setting": "[2]; D-DHA/IVT iron eyes", "value": "prevented"},
      {"measurement": "mRNA levels of Rho, Opn1sw (photoreceptor genes)", "setting": "[2]; D-DHA/IVT iron relative to IVT saline controls", "value": "no change"},
      {"measurement": "mRNA levels of IL1β and Cd68", "setting": "[2]; D-DHA/IVT iron retinas", "value": "not increased"}
    ]}
  ]
}
